Test results as given in paper PMC6658769, “First-Time-in-Human Study and Prediction of Early Bactericidal Activity for GSK3036656, a Potent Leucyl-tRNA Synthetase Inhibitor for Tuberculosis Treatment” (Antimicrobial Agents and Chemotherapy, 2019).

What was measured:
clinical [1] = conditions: human, in vivo, po
[2] = FTIH part B: plasma pharmacokinetics and accumulation after repeat dose; conditions: human, po
in vitro [3] = assay type: in vitro ADME; conditions: dog, plasma
[4] = FTIH part A: plasma pharmacokinetics after single dose; conditions: human, po
[5] = Chronic lung infection model in mice; assay type: in vivo, C57BL/6 mice; conditions: C57BL/6, mouse, in vivo, 1.3 mg/kg, read-out: plasma steady-state AUC associated with EDmax (AUCEDmax), target exposure for efficacy in humans
Method: (§1) The efficacy of GSK3036656 was assessed in C57BL/6 mice having acute and chronic lung infections by M. tuberculosis H37Rv, which mimic infections by actively replicating and nonreplicating/slow-replicating mycobacteria, respectively ([13], [14]). In the acute model, 10 mice were administered different daily oral doses ranging from 0.1 to 100 mg/kg of body weight for 8 days starting 1 day after infection. A maximum difference of 3.6 log CFU was obtained in the lungs compared to untreated mice. […] In the chronic model, a total of 18 mice were administered doses ranging from 0.1 to 30 mg/kg from weeks 6 to 14 after infection. Maximum reduction (drop of 2.1 log10 CFU in the lungs) was achieved after 2 months of daily oral treatment and after fitting the data to a sigmoidal curve. The EDmax for GSK3036656 was estimated as 1.3 mg/kg ([…], 0.7 to 3.4 mg/kg). […] Some additional groups treated at 0.3 to 30 mg/kg were studied in the chronic model to obtain kinetic data (from 2 to 16 weeks of treatment).

M. tuberculosis H37Rv = test: Chronic lung infection model in mice; assay type: in vivo, C57BL/6 mice
Method: as §1

in vitro [6] = assay type: in vitro ADME, humans; conditions: human, plasma
clinical [7] = conditions: human, in vivo
[8] = mouse, in vivo
[9] = system: panel of mammalian cell lines; test: Activity against a panel of mammalian cell lines; assay type: cell-based
[10] = human, in vivo
cytochrome P450s = assay type: in vitro ADME
OATP1B1 = molecular target: T1, OATP1B1 (Homo sapiens, UniProt Q9Y6L6); test: Direct inhibition of OATP1B1; assay type: in vitro ADME; conditions: in vitro
T1 sequence (Q9Y6L6 1-691): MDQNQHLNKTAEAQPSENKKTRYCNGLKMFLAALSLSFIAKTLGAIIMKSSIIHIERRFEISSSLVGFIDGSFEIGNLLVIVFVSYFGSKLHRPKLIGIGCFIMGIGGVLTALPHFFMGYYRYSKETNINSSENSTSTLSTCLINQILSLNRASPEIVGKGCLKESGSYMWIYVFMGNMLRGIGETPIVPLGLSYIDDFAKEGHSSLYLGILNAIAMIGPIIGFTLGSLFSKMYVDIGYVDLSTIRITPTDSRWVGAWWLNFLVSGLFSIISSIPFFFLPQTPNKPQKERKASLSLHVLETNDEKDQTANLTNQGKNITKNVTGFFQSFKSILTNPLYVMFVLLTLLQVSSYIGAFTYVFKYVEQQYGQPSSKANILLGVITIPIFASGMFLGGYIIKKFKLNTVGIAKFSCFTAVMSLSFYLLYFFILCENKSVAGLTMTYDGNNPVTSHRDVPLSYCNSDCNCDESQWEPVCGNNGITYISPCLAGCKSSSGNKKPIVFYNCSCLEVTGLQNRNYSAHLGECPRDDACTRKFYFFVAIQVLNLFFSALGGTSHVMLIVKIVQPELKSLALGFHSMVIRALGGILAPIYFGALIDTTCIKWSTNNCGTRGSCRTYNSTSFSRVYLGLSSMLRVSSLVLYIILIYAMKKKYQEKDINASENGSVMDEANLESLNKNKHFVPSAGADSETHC

clinical [11] = conditions: human, in vivo, po, 5 mg, Ref
[12] = human, in vivo; remark: listed apart in the source

Work on NC[C@H]1OB(O)c2c(OCCO)ccc(Cl)c21 [GSK3036656, (S)-3-(aminomethyl)-4-chloro-7-(2-hydroxyethoxy)benzo[c][1,2]oxaborol-1(3H)-ol] yielded an AUC(0-inf) (clinical [1]; both, 5 mg) of 1400 ng·h/mL, an AUC(0-t) (clinical [1]; both, 5 mg) of 771 ng·h/mL and a Cmax (clinical [1]; both, 5 mg) of 49.1 ng/mL. It also gave a Tmax (clinical [1]; both, 5 mg) of 1.1 h, an AUC(0-inf) (clinical [1]; both, 15 mg) of 3800 ng·h/mL and an AUC(0-t) (clinical [1]; both, 15 mg) of 3250 ng·h/mL. For the same molecule, the Cmax (clinical [1]; both, 15 mg) was 178 ng/mL, the AUC(0-inf) (clinical [1]; 25 mg) was 6560 ng·h/mL and the AUC(0-t) (clinical [1]; 25 mg) was 5690 ng·h/mL. It also gave a Cmax (clinical [1]; 25 mg) of 207 ng/mL, a Tmax (clinical [1]; 25 mg) of 1.1 h and a half-life at 14 days ([2]; 5 mg) of 44 h. For the same molecule, the half-life at 14 days ([2]; 15 mg) was 37 h, the fraction unbound (in vitro [3]) was 0.76 and the half-life ([4]; both, 5 mg) was 40.9 h. The half-life ([4]; both, 15 mg) was 28.4 h, the half-life ([4]; 25 mg) was 49.9 h and the AUC [5] was 1740 ng·h/mL. The “maximum reduction (drop of CFU in the lungs)” value (M. tuberculosis H37Rv; 2 months of daily oral treatment) was 2.1 log10 CFU, the EDmax (M. tuberculosis H37Rv; sigmoidal fit) was 1.3 mg/kg and the fraction unbound (in vitro [6]) was 0.838. It also gave an AUC (clinical [7]; both, 15 mg, steady-state AUC (on average)) of 4460 ng·h/mL, an AUC(0-t) (clinical [7]; po, 5 mg) of 486 ng·h/mL and a Cmax (clinical [7]; po, 5 mg) of 48.4 ng/mL. The Cmax at 14 days (clinical [7]; po, 5 mg) was 97 ng/mL, the Tmax (clinical [7]; po, 5 mg) was 1.3 h and the Tmax at 14 days (clinical [7]; po, 5 mg) was 0.8 h. The AUC (clinical [7]; po, 5 mg, AUC(Ro), geometric LS mean, Ref) was 486 ng·h/mL, the AUC (clinical [7]; po, 5 mg, AUC(Ro), geometric LS mean, Test) was 1390 ng·h/mL and the AUC (clinical [7]; po, 5 mg, Geometric mean AUC0–τ (%CVb)) was 1390 ng·h/mL. For the same molecule, the AUC(0-t) (clinical [7]; po, 15 mg) was 1890 ng·h/mL, the Cmax (clinical [7]; po, 15 mg) was 179 ng/mL and the Cmax at 14 days (clinical [7]; po, 15 mg) was 310 ng/mL. It also gave a Tmax at 14 days (clinical [7]; po, 15 mg) of 0.8 h, an AUC (clinical [7]; po, 15 mg, AUC(Ro), geometric LS mean, Ref) of 1890 ng·h/mL and an AUC (clinical [7]; po, 15 mg, AUC(Ro), geometric LS mean, Test) of 4460 ng·h/mL. The AUC (clinical [7]; po, 15 mg, Geometric mean AUC0–τ (%CVb)) was 4460 ng·h/mL, the oral bioavailability [8] was “very high” and the “activity against a panel of mammalian cell lines” value [9] was “inactivity”. The “Total % dose (drug-related material) in pooled urine” value [10] was 50 % dose, the “direct inhibition of cytochrome P450s” value (cytochrome P450s) was “minimal evidence for direct inhibition” and the “direct inhibition of OATP1B1” value (OATP1B1) was “minimal evidence for direct inhibition”. For the same molecule, the AUC(0-t) (clinical [11]; AUC0–t, geometric LS mean) was 732 ng·h/mL, the AUC(0-inf) (clinical [11]; AUC0–∞, geometric LS mean) was 1430 ng·h/mL and the Cmax (clinical [11]; Cmax, geometric LS mean) was 48.4 ng/mL. The Tmax (clinical [11]; Tmax) was 1.25 h, the “Absorption lag time, bootstrap median estimate” value [12] was 0.24 h and the “Absorption lag time, estimate (%SE)” value [12] was 0.235 (3) h. The “Ka, bootstrap median estimate” value [12] was 0.95 h⁻¹, the “Ka, estimate (%SE)” value [12] was 0.925 (23) h^−1 and the “Residual variability (Prop), bootstrap median estimate” value [12] was 12.6%. For the same molecule, the “Residual variability (Prop), estimate (%SE)” value [12] was 12.9 (16) %.
